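Assay format: 96-well plates, 48-hour exposure. GI50 marks 50% less growth.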 Activity calls are given as the source filed them. Rule as the data show it: active = GI50 up to about 1.1 µM and inactive = higher.
What was measured:
Assay in all cases: NCI anticancer screen, dose series, 48 h
[1] = tested on: RPMI-8226
[2] = tested on: A549
[3] = tested on: SW-620
[4] = tested on: IGROV-1
[5] = tested on: NCI-H460
[6] = tested on: SK-MEL-2
[7] = tested on: DMS-114
[8] = tested on: SF-268
[9] = tested on: K562
[10] = tested on: UACC-257
[11] = tested on: UACC-62
[12] = tested on: OVCAR-4
[13] = tested on: HOP-92
[14] = tested on: CAKI-1
[15] = tested on: OVCAR-5
[16] = tested on: U-251
[17] = tested on: HCC 2998
[18] = tested on: NCI-H23
[19] = tested on: LOX IMVI
[20] = tested on: SR

Measured: GI50

O=NN1C(c2ccccc2)CNC(=O)CC1c1ccccc1 (stereo unspecified)
inactive: [1] 34 µM | [2] 44.5 µM | [3] 38.1 µM | [4] 63.5 µM | [5] 36.2 µM | [6] 33.7 µM | [7] 22.7 µM | [8] 78.5 µM | [9] 22.6 µM | [10] 36.4 µM | [11] 44.4 µM | [12] 52.8 µM | [13] 42.8 µM | [14] 59.6 µM | [15] > 100 µM | [16] 55.3 µM | [17] 27.3 µM | [18] 33.1 µM | [19] 46.7 µM

O=c1[nH]c(=O)n(C2CC(O)C(CO)O2)cc1C#Cc1cc(C(F)(F)F)cc(C(F)(F)F)c1 (stereo unspecified)
inactive: [1] > 29.6 µM | [2] > 24.7 µM | [3] > 30.2 µM | [4] > 36.4 µM | [6] > 36.9 µM | [7] > 31.2 µM | [8] 43.9 µM | [9] > 100 µM | [10] > 37.5 µM | [11] > 25.6 µM | [12] > 29.4 µM | [13] 33.8 µM | [14] > 100 µM | [15] > 100 µM | [16] 18 µM | [17] > 32 µM | [18] 24.4 µM | [19] > 25.5 µM | [20] > 100 µM

O=c1cc(-c2nc3ccccc3[nH]2)[nH]c2nc(-c3nc4ccccc4[nH]3)cc(-c3ccc(Cl)cc3)c12
inactive: [1] 11.5 µM | [2] 24.4 µM | [3] 21.5 µM | [4] 1.42 µM | [5] 16.3 µM | [6] 12.2 µM | [8] 15.8 µM | [9] 16.1 µM | [10] 23.7 µM | [11] 14 µM | [12] 26.1 µM | [13] 5.52 µM | [14] 21.9 µM | [15] 29 µM | [16] 16.1 µM | [18] 40.2 µM | [19] 15.5 µM | [20] 15.2 µM

NC12CCC(CC1=O)C2 (stereo unspecified)
inactive: [1] > 100 µM | [2] > 100 µM | [3] > 100 µM | [4] > 100 µM | [6] > 100 µM | [8] > 100 µM | [9] > 100 µM | [10] > 100 µM | [11] > 100 µM | [12] > 100 µM | [13] > 100 µM | [15] > 100 µM | [16] > 100 µM | [17] > 100 µM | [18] > 100 µM | [19] > 100 µM | [20] > 100 µM

CCOC(=O)C(C(C)=O)C1CC=CC1 (stereo unspecified)
inactive: [1] > 100 µM | [2] > 100 µM | [3] > 100 µM | [4] > 100 µM | [5] > 100 µM | [6] > 100 µM | [7] > 100 µM | [9] > 100 µM | [10] > 100 µM | [11] > 100 µM | [12] > 100 µM | [13] > 100 µM | [14] > 100 µM | [15] > 100 µM | [16] > 100 µM | [17] > 100 µM | [19] > 100 µM

COc1ccc(C[C@H](N)C(=O)N2C[C@H](CO)C[C@H](n3cnc4c(N(C)C)ncnc43)C2)cc1
inactive: [1] > 100 µM | [2] > 100 µM | [3] > 100 µM | [4] > 100 µM | [5] > 100 µM | [6] > 100 µM | [7] > 100 µM | [8] > 100 µM | [9] > 100 µM | [11] > 100 µM | [12] > 100 µM | [13] 57 µM | [14] > 100 µM | [15] > 100 µM | [16] > 100 µM | [17] > 100 µM | [18] > 100 µM | [19] > 100 µM | [20] > 100 µM

CC(=O)N1N=C(c2ccc3ccccc3c2O)CC1c1cccs1 (stereo unspecified)
inactive: [1] 6.55 µM | [2] 13.9 µM | [3] 16 µM | [4] 11.4 µM | [5] 8.49 µM | [6] 19 µM | [8] 12.3 µM | [9] 4.18 µM | [10] 34.8 µM | [11] 9.31 µM | [12] 27.8 µM | [13] 33.7 µM | [14] 20.1 µM | [15] 32.4 µM | [16] 8.09 µM | [17] 21.6 µM | [18] 20.3 µM | [20] 3.6 µM

O=C1CCCCN1
inactive: [1] > 1120 µM | [2] > 1120 µM | [3] > 1120 µM | [4] > 1120 µM | [5] > 1120 µM | [6] > 1120 µM | [7] > 1120 µM | [8] > 1120 µM | [9] > 1120 µM | [10] > 1120 µM | [11] > 411 µM | [12] > 1120 µM | [13] > 1120 µM | [14] > 1120 µM | [15] > 1120 µM | [16] > 252 µM | [17] 333 µM | [18] > 1120 µM | [19] > 1120 µM

CC(C)(C)[Si](C)(C)OC[C@H](/C=C\CCCC(=O)O)NC1(c2ccccc2)c2ccccc2-c2ccccc21
inactive: [1] 4.17 µM | [2] 10.7 µM | [3] 22.5 µM | [4] 16.7 µM | [5] 15.1 µM | [6] 11.9 µM | [8] 13.9 µM | [9] 5.18 µM | [10] 10.2 µM | [11] 12.6 µM | [12] 14.8 µM | [13] 11.1 µM | [14] 11.2 µM | [15] 23.2 µM | [16] 14.4 µM | [17] 14.5 µM | [18] 14.7 µM | [19] 12.9 µM | [20] 4.65 µM

O=C1CSC(C(/N=N/c2ccc(Cl)cc2)c2nc3ccccc3[nH]2)=N1 (stereo unspecified)
inactive: [1] > 100 µM | [2] > 100 µM | [3] > 100 µM | [5] 33 µM | [6] 16 µM | [7] 26.2 µM | [8] > 100 µM | [9] 61.8 µM | [10] > 100 µM | [11] > 100 µM | [12] > 100 µM | [13] 54 µM | [14] > 100 µM | [15] > 100 µM | [16] 53.3 µM | [17] 25.6 µM | [18] 63 µM | [20] 76.4 µM

COc1ccc(-c2c3c(nc4nc(SC)nc(SC)c24)CCCC3)cc1OC
inactive: [1] 45.8 µM | [2] > 100 µM | [3] 67.5 µM | [4] > 100 µM | [5] 29.2 µM | [6] 25.8 µM | [8] 82.2 µM | [9] 28.2 µM | [10] > 100 µM | [11] 67.6 µM | [13] 40.2 µM | [14] 67.9 µM | [15] > 100 µM | [16] 70.3 µM | [17] > 100 µM | [18] > 100 µM | [19] 46.6 µM | [20] 8.07 µM

From ChEMBL document CHEMBL1201862, “PubChem BioAssay data set” (2004)
